Results published in patent publication US20110045102A1, “Cancer chemotherapy compositions comprising PI3K pathway modulators and triptolide” (priority 2005, published 2011).

Tests used:
[1] = tested on: OCC1-SEAP-12 ovarian cancer cells; format: in vivo
Experimental: Athymic nude mice were obtained and inoculated intraperitoneally with OCC1-SEAP-12 cells as described above in Examples I and II. Animals received injections of either vehicle control (PBS containing 25% DMSO), or carboplatin (60 mg/kg) alone, or in combination with LY294002 (50 mg/kg) every other day for 6 days. Blood samples were collected into capillary tubes from saphenous vein lancings at regular intervals during and following treatments. Capillary tubes were centrifuged, and the plasma samples were frozen (−20° C.), until the time of SEAP assay. The Washington State University Animal Care and Use Committee approved all procedures.
Blood plasma and cell culture medium samples were assayed for SEAP activity using the Great EscAPe SEAP fluorescence detection kit (Clontech Laboratories, Palo Alto, Calif.) as described above in Examples I and II. Blood plasma samples were diluted 1:100 prior to the assay to bring values within the linear range of the standard curve. The intraassay and interassay coefficients of variation were 2.5% and 18.8%, respectively.

[2] = tested on: OCC1-SEAP cell cultures; test: DNA fragmentation (laddering) on agarose gel (Example II); format: cell-based, human; details: 48 hr; TPL 100 ng/ml, carboplatin 50 μg/ml
Experimental: Following 48 h to 72 h treatment incubations, cells were suspended into culture medium and pelleted in tubes. DNA was isolated from collected cells using a Puregene™ DNA isolation kit (Gentra Systems, Minneapolis, Minn.). The quantity and purity of nucleic acid preparations were estimated by measuring the absorbance of each sample (A260/A280). DNA preparations (10 μg/well) were loaded onto 1.2% agarose gels and visualized with ethidium bromide stain.

[3] = tested on: OCC1-SEAP tumor; test: Nude mouse tumor model, intraperitoneal OCC1-SEAP cells, plasma SEAP (Example II); format: in vivo; details: carboplatin 60 mg/kg every other day for 5 days
From the text: Athymic nude mice (NCR Nu/Nu) were either purchased from Taconic (Germantown, N.Y.) or bred in-house at Washington State University, Pullman, Wash. The OCC1-SEAP cells were collected in Hank's balanced salt solution and counted prior to injection. Treatments were initiated 7 to 10 days following an intraperitoneal inoculation of mice with 1×10^7 OCC1-SEAP cells, as described above, in Example I.
Stock solutions of carboplatin (paraplatin; Bristol-Myers Squibb, Princeton, N.J.) and TPL (Calbiochem, CA), were prepared in sterile filtered PBS and DMSO, respectively. Animals received intraperitoneal injections of either vehicle controlled (PBS containing 4% DMSO), or carboplatin (60 mg/kg), alone, or in combination with TPL (0-1.0 mg/kg), every other day for 5 days. Alternatively, TPL (0.15 mg/kg) was injected every day for 10 days. For these experiments, carboplatin was administered under the same schedule of every other day for 5 days. Some mice were also treated with 40 mg/kg of LY294002 every other day for 5 days, with an intraperitoneal injection in the presence of TPL and carboplatin. Blood samples were collected into capillary tubes from saphenous vein lancings at regular intervals during and following treatments. The capillary tubes were centrifuged and the plasma samples were frozen at −20° C., until the time of SEAP assay. The Washington State University Animal Care and Use Committee approved all procedures.
Blood plasma and cell culture medium samples were assayed for SEAP activity using the Great EscAPe SEAP fluorescence detection kit (Clontech Laboratories, Palo Alto, Calif.), as described above in Example I. Blood plasma samples were diluted 1:100, prior to the assay to bring values within the linear range of the standard curve. The intraassay and interassay coefficients of variation were 2.5% and 18.8%, respectively. In the case of the experiments in which mice were treated with a combination of TPL, LY294002 and carboplatin, there was some variation in the extent of tumor growth in the control mice. In order to better compare response to treatment across experiments, the SEAP assay data between experiments were normalized by dividing each data point by the overall mean of all SEAP measurements from that experiment and up, through day 18. The normalized data then reflect the relative tumor burden of each mouse, compared to others in the experimental group, and can be combined across experiments.

[4] = tested on: caspase 3; test: Western blot for active caspase 3 (Example III); format: cell-based, human; details: LY294002 10 μM, carboplatin 50 μg/ml
Experimental: The OCC1-SEAP-12 cells were grown to 80% confluence. Cultures were incubated in DMEM plus 0.1% bovine serum albumin (BSA) and 0.1% BCS to which either vehicle control, carboplatin (0-50 μg/ml), LY294002 (0-20 μM) or combinations of these treatments. Following 24, 48 or 72 hr cells were lysed with sample buffer (62.5 mM Tris-HCl, pH 6.8, 2% SDS, 5% glycerol, […], 0.5% β-mercaptoethanol). Total cell lysates were subjected to SDS polyacrylamide gel electrophoresis 9 page) and transferred to PVDF membranes (Millipore, Bedford, Mass.). Membranes were immunoblotted with antibodies to both the phosphorylated and non-phosphorylated forms of […] (Cell Signaling Technology, Beverly, Mass.), or alternatively, with antibodies to cleaved and full length caspase-3 (Cell Signaling Technology, Beverly, Mass.).

N.N.O=C([O-])C1(C(=O)[O-])CCC1.[Pt+2] [carboplatin]
drug induced toxicity ([1]; carboplatin 60 mg/kg, alone or with LY294002 50 mg/kg): muscle wasting and became anemic | abdominal swelling (FIG. 24) ([1]; physical appearance of mice after treatment): displayed abdominal swelling | tumor size vs vehicle control (FIG. 23) ([1]; single agents: LY294002 50 mg/kg, carboplatin 60 mg/kg): no significant difference | DNA laddering [2]: evident | tumor burden vs vehicle control (FIG. 11) ([3]; high dose, short duration: TPL 0.5 mg/kg): no significant difference | tumor burden as measured by SEAP levels vs vehicle control (FIG. 12) ([3]; low dose, long duration: TPL 0.15 mg/kg every day for 10 days): no significant difference | time at which active 17 kDa caspase 3 appears [4]: 48 h
